The values below come from PubChem BioAssay (NCI).

Test systems include DU-145 prostate; HL-60(TB) leukemia; MDA-MB-435; MOLT-4 leukemia; NCI-H226 lung; NCI-H23 lung; NCI/ADR-RES ovarian; OVCAR-5 ovarian; PC-3 prostate; RPMI-8226 leukemia; SF-539 CNS.
Experiment in all cases: NCI-60 cell line screen, 48 h

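48-hour exposure; five concentrations; linearly interpolated endpoints. TGI is the concentration that stops growth completely.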

In the case of `CNC(=O)CCCN(C)C(=O)CCCCC(=O)N(C)C`, the TGI in the assay with DU-145 prostate, with HL-60(TB) leukemia, in the assay on MDA-MB-435, with MOLT-4 leukemia, in the assay on NCI-H226 lung and with NCI-H23 lung was greater than 100 µM each time. Also, the TGI in the assay on NCI/ADR-RES ovarian, in the assay with OVCAR-5 ovarian, in the assay with PC-3 prostate, in the assay on RPMI-8226 leukemia and with SF-539 CNS was greater than 100 µM each time.
In the case of `O=C(CCCl)NNC1=NCCN1`, the TGI in the assay on DU-145 prostate, with HL-60(TB) leukemia, in the assay on MDA-MB-435, in the assay on MOLT-4 leukemia, with NCI-H226 lung and with NCI-H23 lung was greater than 100 µM in each case. Besides, the TGI with NCI/ADR-RES ovarian, in the assay on OVCAR-5 ovarian, in the assay with PC-3 prostate, in the assay on RPMI-8226 leukemia and in the assay with SF-539 CNS was greater than 100 µM each time.
Regarding `O=C1C=C(NCCc2cc(Br)c(O)c(Br)c2)C(=O)c2ncccc21`, the TGI is 2.99 µM in the assay on DU-145 prostate; 16.1 µM in the assay with HL-60(TB) leukemia; 0.723 µM with MDA-MB-435; 21.9 µM in the assay with MOLT-4 leukemia; 3.72 µM with NCI-H226 lung; 1.66 µM in the assay on NCI-H23 lung. In addition, the TGI in the assay with NCI/ADR-RES ovarian worked out at 27.5 µM; with OVCAR-5 ovarian it was 3.95 µM; with PC-3 prostate, 27.1 µM; in the assay on RPMI-8226 leukemia it was 18.3 µM; with SF-539 CNS, 2.52 µM.
For `COC(=O)CCn1cnc2c(SC)ncnc21`, the TGI in the assay on DU-145 prostate, with HL-60(TB) leukemia, with MDA-MB-435, in the assay with MOLT-4 leukemia, with NCI-H226 lung and with NCI-H23 lung was greater than 100 µM throughout. The TGI with NCI/ADR-RES ovarian, in the assay with OVCAR-5 ovarian, with PC-3 prostate, in the assay with RPMI-8226 leukemia and in the assay with SF-539 CNS was greater than 100 µM each time.
In the case of `O=c1[nH]nc(Cc2ccc(Cl)cc2)n1/N=C\CC/C=N\n1c(Cc2ccc(Cl)cc2)n[nH]c1=O`, the TGI in the assay on DU-145 prostate was greater than 100 µM; in the assay on HL-60(TB) leukemia it was greater than 100 µM; in the assay with MDA-MB-435 it was greater than 100 µM; in the assay with MOLT-4 leukemia it was greater than 96.5 µM; with NCI-H226 lung it was greater than 71 µM; in the assay on NCI-H23 lung it was greater than 100 µM. The TGI was greater than 66.3 µM with NCI/ADR-RES ovarian; greater than 100 µM with OVCAR-5 ovarian; greater than 100 µM with PC-3 prostate; greater than 100 µM in the assay with RPMI-8226 leukemia; 40.6 µM in the assay with SF-539 CNS.
As to `NCCCN1CCN(CC(=O)O)CCN(CCCN)CCN(CC(=O)O)CC1`, the TGI in the assay on DU-145 prostate, in the assay on HL-60(TB) leukemia, in the assay with MDA-MB-435, with MOLT-4 leukemia, in the assay with NCI-H226 lung and in the assay with NCI-H23 lung was greater than 100 µM throughout. Besides, the TGI was greater than 100 µM with NCI/ADR-RES ovarian; greater than 93.8 µM with OVCAR-5 ovarian; greater than 100 µM in the assay on PC-3 prostate; greater than 100 µM in the assay on RPMI-8226 leukemia; greater than 100 µM in the assay on SF-539 CNS.
`N/N=C1\CCCc2c1no[n+]2[O-]`: the TGI with DU-145 prostate, in the assay on HL-60(TB) leukemia, with MDA-MB-435, in the assay with MOLT-4 leukemia, with NCI-H226 lung and in the assay on NCI-H23 lung was greater than 100 µM each time. Also, the TGI in the assay on NCI/ADR-RES ovarian, with OVCAR-5 ovarian, in the assay with PC-3 prostate, in the assay on RPMI-8226 leukemia and in the assay on SF-539 CNS was greater than 100 µM in each case.
In the case of `O=c1ccn2n1CCCCC2`, the TGI with DU-145 prostate, in the assay with HL-60(TB) leukemia, in the assay on MDA-MB-435, with MOLT-4 leukemia, in the assay on NCI-H226 lung and in the assay on NCI-H23 lung was greater than 100 µM in each case. Besides, the TGI in the assay on NCI/ADR-RES ovarian, with OVCAR-5 ovarian, in the assay on PC-3 prostate, in the assay on RPMI-8226 leukemia and with SF-539 CNS was greater than 100 µM throughout.
With `CCOC(=O)NC(NC(C)CC)(C(F)(F)F)C(F)(F)F` (configuration not stated), the TGI in the assay with DU-145 prostate, in the assay with HL-60(TB) leukemia, in the assay with MDA-MB-435, in the assay on MOLT-4 leukemia, with NCI-H226 lung and in the assay on NCI-H23 lung was greater than 100 µM each time. Further, the TGI with NCI/ADR-RES ovarian, in the assay with OVCAR-5 ovarian, in the assay with PC-3 prostate, with RPMI-8226 leukemia and with SF-539 CNS was greater than 100 µM in each case.
Take `O=C(c1cccnc1)N1N=C(c2ccc(Cl)cc2)CC1(O)c1cc(F)c(Cl)cc1Cl` (configuration not stated): the TGI with DU-145 prostate is greater than 100 µM; in the assay with HL-60(TB) leukemia it was 47.9 µM; with MDA-MB-435, greater than 100 µM; with MOLT-4 leukemia, greater than 100 µM; in the assay with NCI-H226 lung, 43.3 µM; in the assay with NCI-H23 lung, greater than 100 µM. Also, the TGI was greater than 100 µM in the assay on NCI/ADR-RES ovarian; greater than 100 µM with OVCAR-5 ovarian; 43.4 µM in the assay with PC-3 prostate; 47.6 µM in the assay with RPMI-8226 leukemia; 28.1 µM in the assay on SF-539 CNS.
Consider `CC1(C)CN=C(Nc2cccc(C(F)(F)F)c2)S1`, for which the TGI in the assay with DU-145 prostate, with HL-60(TB) leukemia, with MDA-MB-435, in the assay with MOLT-4 leukemia, with NCI-H226 lung and in the assay with NCI-H23 lung was greater than 100 µM each time. For the same molecule, the TGI in the assay on NCI/ADR-RES ovarian, with OVCAR-5 ovarian, in the assay with PC-3 prostate, in the assay on RPMI-8226 leukemia and in the assay with SF-539 CNS was greater than 100 µM in each case.
For the molecule `Oc1c(C2=N[C@H]3CCCC[C@@H]3N2)ccc2ccccc12`, the TGI in the assay on DU-145 prostate, in the assay on HL-60(TB) leukemia, in the assay with MDA-MB-435, in the assay with MOLT-4 leukemia, in the assay on NCI-H226 lung and with NCI-H23 lung was greater than 100 µM in each case. The TGI in the assay on NCI/ADR-RES ovarian is greater than 93.9 µM; with OVCAR-5 ovarian it was greater than 100 µM; in the assay on PC-3 prostate, greater than 100 µM; with RPMI-8226 leukemia it was greater than 100 µM; in the assay on SF-539 CNS, greater than 100 µM.
